Results taken from US7105567B2, “3-substituted urea derivatives and medicinal use thereof” (Mitsubishi Pharma Corporation, priority 2000, dated 2006).
Where a name gives a salt, the structure may show the parent alone. One block for each molecule: values may come before it.

Key:
[1] = system: C5a-Induced Decrease in Neutrophile in Cynomolgus Monkey; assay: C5a-induced decrease in neutrophile in cynomolgus monkey; assay type: in vivo; details: 30 mg/kg orally, human C5a administered 4 hr later
Protocol: The action of the test compound on the decrease of neutrophile in peripheral blood, that occurs temporarily upon intravenous administration of human C5a to cynomolgus monkey, was evaluated. That is, the test compound was orally administered to cynomolgus monkey, and 4 hr later, human C5a was administered. The neutrophiles in peripheral blood were counted 2 min before and 1 min after administration of human C5a, and the rate (%) of decrease in neutrophiles in peripheral blood was calculated by the following formula. decrease rate (%)=100−[(neutrophiles in peripheral blood 1 min after administration of human C5a)/(neutrophiles in peripheral blood 2 min before administration of human C5a)]×100
Using the following formula, moreover, the inhibition rate (% inhibition) of decrease in neutrophiles in peripheral blood by the test compound was calculated. % inhibition=100−[(Test−Min)/(Max−Min)]×100 • Test: decrease rate of neutrophiles in peripheral blood when test compound and human C5a were administered • Min: decrease rate of neutrophiles in peripheral blood upon administration of administration medium for test compound and administration medium for human C5a • Max: decrease rate of neutrophiles in peripheral blood upon administration of administration medium for test compound and human C5a

C5a receptor = biological target: T1, C5a receptor (Homo sapiens, UniProt P21730); assay: C5a receptor binding assay ([125I]-human C5a, dcAMP-U-937 cells); details: dcAMP-U-937 cell, [125I]-C5a 200 pM, 4° C. for 2 hr; read-out: IC50 value, concentration at which binding of [125I]-human C5a is inhibited by 50%
T1 construct: U-937 cell was stimulated with 1 mM dibutyryl cyclic AMP (dcAMP, SIGMA) for 2 days to express the C5a receptor; endogenous in cells; host or cells: U-937 cells (human histiocytic lymphoma line) differentiated with 1 mM dibutyryl cAMP for 2 days
T1 sequence (P21730 1-350): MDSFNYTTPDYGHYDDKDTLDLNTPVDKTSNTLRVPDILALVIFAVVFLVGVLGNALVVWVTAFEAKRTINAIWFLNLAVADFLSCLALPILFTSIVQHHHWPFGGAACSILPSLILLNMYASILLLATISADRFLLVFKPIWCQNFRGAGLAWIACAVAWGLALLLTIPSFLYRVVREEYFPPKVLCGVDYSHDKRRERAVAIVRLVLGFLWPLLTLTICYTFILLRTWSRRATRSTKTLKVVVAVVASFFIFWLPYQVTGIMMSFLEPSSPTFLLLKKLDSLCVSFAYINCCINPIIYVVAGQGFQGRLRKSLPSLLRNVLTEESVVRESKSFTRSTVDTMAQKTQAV
Protocol: The C5a receptor binding inhibitory action of C5a and the test compound was evaluated by a receptor binding assay comprising reacting human cell line U-937 (human histiocytic lymphoma line), which expresses the C5a receptor, with [^125I]-human C5a (Amersham Pharmacia Biotech) in a MultiScreen (MILLIPORE). First, U-937 cell was stimulated with 1 mM dibutyryl cyclic AMP (dcAMP, SIGMA) for 2 days to express the C5a receptor (dcAMP-U-937 cell), and suspended in a binding buffer [50 mM HEPES, 1 mM CaCl2, 5 mM MgCl2, 0.5% bovine serum albumin (BSA, SIGMA), 0.02% NaN3 (pH 7.2)] and stored at −80° C. The binding assay was started by the addition of 50 μL of dcAMP-U-937 cell suspension dissolved immediately before use, 25 μL of a binding buffer or a test compound solution, and 25 μL of [^125I]-C5a solution (final concentration 200 pM), to each well of the MultiScreen. […] After drying the MultiScreen, the radioactivity on the filter was measured using a gamma counter. The rate (% inhibition) of inhibition of C5a binding by the test compound was calculated by the following formula using the count value obtained without addition of the test compound as Total, the count value obtained with addition of non-labeled C5a as Non, and the count value obtained with addition of the test compound as Test. % Inhibition=100−[(Test−Non)/(Total−Non)]×100 […]

[2] = system: C5a stimulated neutrophile; assay: Action on increase of intracellular Ca2+ concentration of C5a stimulated neutrophile; assay type: cell-based, human
Protocol: A neutrophile fraction was separately taken from human peripheral venous blood using Lympholyte-poly (Cedarlane), and suspended in Hank's Balanced Salt Solution (HBSS, GIBCO BRL) supplemented with 1% fetal bovine serum (FBS). Then, Fura 2-AM (final concentration 5 μM, DOJINDO) was added to the neutrophile fraction (5×10^6 cells/mL), and the mixture was incubated at 37° C. for 40 min. The cells were washed by centrifugation and suspended to the concentration of 1×10^6 cells/mL. The intracellular Ca^2+ concentration was measured using a spectrophotofluorometer (CAF-110, JASCO Corporation), and calculated from the ratio (Ex340 value/Ex380 value) of fluorescent intensities at 500 nm upon excitation at 340 nm and 380 nm, the former being Ex340 value, the latter being Ex380 value. […] Then, Triton X-100 (final concentration 0.2%) was added and the cells were dissolved, and, sb2 value, which was the Ex 340 value then, and Rmax value, which was the Ex340 value/Ex380 value then, was measured. Then, EGTA (final concentration 3 mmol/L) was added and sf2 value, which was the Ex340 value then, and Rmin value, which was the Ex340/Ex380 value then, was measured. From these measurement results, the intracellular Ca^2+ concentration was calculated from the following formula. […]

[3] = system: C5a stimulated neutrophile; assay: Production of reactive oxygen species in C5a-stimulated neutrophile; assay type: cell-based; details: human neutrophile, C5a 3 nmol/L, luminol luminescence; read-out: IC50 value, inhibition of production of reactive oxygen species in C5a stimulated neutrophile
Protocol: A neutrophile fraction was separately taken from human peripheral venous blood using Lympholyte-poly (Cedarlane), and suspended in Hank's Balanced Salt Solution (HBSS, GIBCO BRL) containing 1% fetal bovine serum (FBS) and 1 mmol/L of luminol (Wako Pure Chemical Industries, Ltd.). Reactive oxygen species was measured using a luminometer (MicroLumat, Berthold) for 96 well plate. That is, 1×10^5 cells/150 μL of neutrophile suspension and 25 μL of a test compound solution were added to a well, which was set in a MicroLumat set for 37° C. and stood for about 5 min. Then, 25 μL of C5a (final concentration 3 nmol/L) was added and luminescence produced by the reaction of the luminol and the reactive oxygen species was measured with the lapse of time for 15 min. The rate (% inhibition) of inhibition of the production of reactive oxygen species in C5a stimulated neutrophile by the test compound was calculated by the following formula, wherein the peak value of the production of reactive oxygen species derived by C5a without addition of the test compound is Max, the peak value of the production of reactive oxygen species without addition of the test compound and without C5a stimulation is Min, and the peak value of the production of reactive oxygen species derived by C5a with the addition of the test compound is Test. % inhibition=100−[(Test−Min)/(Max−Min)]×100 […]

[4] = system: C5a-stimulated neutrophile; assay: Migrating ability of C5a-stimulated neutrophile; assay type: cell-based; details: 1.5 h; human neutrophile, C5a 100 pmol/L, chemotaxicell, 90 min; read-out: IC50 value, inhibition of migration of C5a-stimulated neutrophile
Protocol: A neutrophile fraction was separately taken from human peripheral venous blood using Lympholyte-poly (Cedarlane) and suspended in RPMI 1640 medium (GIBCO BRL) supplemented with 0.1% bovine serum albumin (BSA). To this neutrophile fraction (5×10^6 cells/mL) was added Calcein-AM (final concentration 5 μM, FUNAKOSHI), and the mixture was incubated at 37° C. for 30 min. The cells were washed by centrifugation and suspended to a concentration of 1×10^6 cells/mL. The migration was evaluated by adding neutrophiles to chemotaxicell (pore size: 3 μm, KURABO) and measuring the neutrophiles that migrated outside the chemotaxicell. First, 100 pmol/L of C5a solution was added to 24 well plate (500 μL/well) and chemotaxicell was set in the well. […] The fluorescent intensity of each well was measured by Cyto Fluor II (Ex: 485, Em: 530). The rate (% inhibition) of the inhibition of migration of C5a-stimulated neutrophile by the test compound was calculated by the following formula, wherein the fluorescence intensity of neutrophile that migrated by C5a stimulation without addition of the test compound is Max, the fluorescent intensity of neutrophile that migrated without addition of test compound and without C5a stimulation is Min, and the fluorescent intensity of neutrophile that migrated by C5a stimulation with the addition of the test compound is Test. % inhibition=100−[(Test−Min)/(Max−Min)]×100 […]

- melting point: 203 to 206 °C
Compound: CC(C)c1ccc(N(Cc2ccc(N(C)C)cc2)C(=O)Nc2c(C(C)C)cccc2C(C)C)cc1 (as salt: fumarate) [Example 34, N′-(2,6-diisopropylphenyl)-N-[(4-dimethylaminophenyl)methyl]-N-(4-isopropylphenyl)urea 9/10 fumarate]

Compound: CC(C)c1ccc(N(Cc2ccc(Br)cc2)C(=O)Nc2c(C(C)C)cccc2C(C)C)cc1 [Example 53, N-[(4-bromophenyl)methyl]-N′-(2,6-diisopropylphenyl)-N-(4-isopropylphenyl)urea]
- % inhibition of decrease in neutrophiles in peripheral blood [1]: 74%

- melting point: 124 to 125 °C
Compound: CC(C)c1cccc(C(C)C)c1NC(=O)N(Cc1ccc(N(C)C)cc1)c1ccc(F)cc1 [Example 1, N′-(2,6-diisopropylphenyl)-N-[(4-dimethylaminophenyl)methyl]-N-(4-fluorophenyl)urea]

- melting point: 134 to 135 °C
Compound: CC(C)c1ccc(N(Cc2cnn(Cc3ccc(C(F)(F)F)cc3)c2)C(=O)Nc2c(C(C)C)cccc2C(C)C)cc1 [Example 61, N′-(2,6-diisopropylphenyl)-N-(4-isopropylphenyl)-N-{[1-(4-trifluoromethylbenzyl)pyrazol-4-yl]methyl}urea]

- IC50 (C5a receptor): 100 nM
- IC50 ([2]; human peripheral blood neutrophile, recombinant human C5a 100 pmol/L, Fura 2-AM, read-out: IC50 value, inhibition of increase in intracellular Ca2+ concentration of C5a-stimulated neutrophile): 5 nM
- IC50 [3]: 10 nM
- IC50 [4]: 100 nM
Compound: CC(C)c1ccc(N(Cc2ccc(N(C)C)cc2)C(=O)Nc2c(C(C)C)cccc2C(C)C)cc1 [Example 34, N′-(2,6-diisopropylphenyl)-N-[(4-dimethylaminophenyl)methyl]-N-(4-isopropylphenyl)urea 9/10 fumarate]
- agonistic action (increase in intracellular Ca2+ induced by the compound) ([2]; compound 10 μmol/L, human neutrophile): not found
